Source: the supplement of paper PMC5752671
Where a name gives a salt, the structure may show the parent alone.

Assays:
Experiment in all cases: IC50 (cell viability) (log10 M)
Details in all cases: 4 days
SKM1 = tested on: SKM1
Procedure, shortened: (§1)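 Fourteen leukemia cell lines were plated on extracellular-matrix-coated 384-well plates. Drugs were added robotically the next day at eight concentrations spanning 4–5 logs within 10^–12–10^–4 M, tailored per drug, in duplicate. Viability was read with CellTiter-Glo after 4 days. IC50 is the concentration where a fitted four-parameter curve crosses 50% viability, in log10 M; where that is not reached, the highest tested concentration is entered.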

MOLM/13 = tested on: MOLM/13
Procedure, shortened: as §1

EOL-1 = tested on: EOL-1
Procedure, shortened: as §1

THP-1 = tested on: THP-1
Procedure, shortened: as §1

KASUMI1 = tested on: KASUMI1
Procedure, shortened: as §1

NB4 = tested on: NB4
Procedure, shortened: as §1

OCI-AML2 = tested on: OCI-AML2
Procedure, shortened: as §1

KG1 = tested on: KG1
Procedure, shortened: as §1

MV4.11 = tested on: MV4.11
Procedure, shortened: as §1

U937 = tested on: U937
Procedure, shortened: as §1

SMILES | IC50 (log10 M) (SKM1) | IC50 (log10 M) (MOLM/13) | IC50 (log10 M) (EOL-1) | IC50 (log10 M) (THP-1) | IC50 (log10 M) (KASUMI1) | IC50 (log10 M) (NB4) | IC50 (log10 M) (OCI-AML2) | IC50 (log10 M) (KG1) | IC50 (log10 M) (MV4.11) | IC50 (log10 M) (U937)
CCN(CC)CCCC(C)Nc1c2ccc(Cl)cc2nc2ccc(OC)cc12 (stereo not given) [Acrichine] | -5.47 | -5.57 | -5.82 | -5.33 | -5.52 | -5.46 | -5.69 | -5.44 | -5.79 | -5.48
C[C@]1(c2nc3c(C(N)=O)cccc3[nH]2)CCCN1 [ABT-888] | > -5 | > -5 | > -5 | > -5 | > -5 | > -5 | > -5 | > -5 | > -5 | > -5
CS(=O)(=O)c1ccc(C(=O)Nc2ccc(Cl)c(-c3ccccn3)c2)c(Cl)c1 [GDC-0449] | > -5 | > -5 | > -5 | > -5 | > -5 | > -5 | > -5 | > -5 | > -5 | > -5
C[C@@H]1C[C@H]2[C@@H]3CCC4=CC(=O)C=C[C@]4(C)[C@@]3(F)[C@@H](O)C[C@]2(C)[C@@]1(O)C(=O)CO [dexamethasone] | > -5 | > -5 | > -5 | > -5 | > -5 | > -5 | > -5 | > -5 | > -5 | > -5
Cc1ccccc1-n1c(Cn2cnc3c(N)ncnc32)nc2cccc(C)c2c1=O | > -5 | > -5 | > -5 | > -5 | > -5 | > -5 | > -5 | > -5 | > -5 | > -5
Nc1ccn([C@@H]2O[C@H](CO)[C@@H](O)[C@@H]2O)c(=O)n1 [Cytarabine HCl] | -6.81 | < -7.34 | < -7.34 | -6.53 | < -7.34 | < -7.34 | < -7.34 | -7.29 | -7.21 | < -7.34
Cc1ccc(NC(=O)c2ccc(CN3CCN(C)CC3)cc2)cc1Nc1nc(-c2cccnc2)cs1 [Masitinib] | > -5 | -5.11 | -7.33 | > -5 | -5.32 | > -5 | > -5 | > -5 | -5.28 | -5.07
Cn1cc(C2=C(c3cn(C4CCN(Cc5ccccn5)CC4)c4ccccc34)C(=O)NC2=O)c2ccccc21 [Enzastaurin] | > -5 | > -5 | > -5 | > -5 | > -5 | > -5 | > -5 | > -5 | -5.11 | > -5
CC[C@H](Nc1ncnc2[nH]cnc12)c1nc2cccc(F)c2c(=O)n1-c1ccccc1 [CAL-101] | > -5 | > -5 | -5.16 | > -5 | -5.08 | > -5 | > -5 | > -5 | -5.3 | > -5
COc1cccc2cc(-c3nc([C@H]4CC[C@H](C(=O)O)CC4)n4ncnc(N)c34)[nH]c12 [OSI-027] | -5.68 | -5.97 | -8.18 | -5.85 | -5.9 | -5.52 | -5.73 | -5.26 | -6.48 | -6.28
c1cc(-c2sc(-c3ccncc3)c(-c3ccncc3)c2-c2ccncc2)ccn1 [GANT58] | > -5 | > -5 | > -5 | > -5 | > -5 | > -5 | > -5 | > -5 | > -5 | > -5
Cc1ccc(C(=O)Nc2ccc(CN3CCN(C)CC3)c(C(F)(F)F)c2)cc1C#Cc1cnc2cccnn12 | -6.04 | -8.29 | < -9.34 | -6.06 | -6.5 | -6.12 | -6.41 | -7.98 | -8.82 | -6.07
CC(C)(C)c1cc(NC(=O)Nc2ccc(-c3cn4c(n3)sc3cc(OCCN5CCOCC5)ccc34)cc2)no1 [AC-220] | > -6 | -9.03 | < -9.34 | -6.01 | -6.48 | > -6 | -6 | > -6 | < -9.34 | -6.37
CN(Cc1cnc2nc(N)nc(N)c2n1)c1ccc(C(=O)N[C@@H](CCC(=O)O)C(=O)O)cc1 [Methotrexate] | > -5 | < -8.48 | > -5 | -7.82 | > -5 | < -8.48 | < -8.48 | > -5 | < -8.48 | > -5
NC(=O)c1ccc(I)c([N+](=O)[O-])c1 [BSI-201] | > -5 | > -5 | > -5 | > -5 | > -5 | > -5 | > -5 | > -5 | > -5 | > -5
C[C@]1(O)C[C@@H](c2nc(-c3ccc4ccc(-c5ccccc5)nc4c3)c3c(N)nccn32)C1 [OSI-906] | -5.56 | > -5 | -5.74 | > -5 | -5.67 | -5.56 | -5.38 | > -5 | > -5 | > -5
